US6919378B2, “Pharmaceutical solutions of modafinil compounds” (Cephalon, Inc., priority 2000, dated 2005)
In brackets after ≈: the same amount, converted by molar mass.

What was measured:
[1] = Solubility of modafinil in solvent composition, measured by HPLC; type: physicochemical; details: PEG-400:benzyl alcohol 95:5 (v/v) solvent mixture, organic solvent or mixture, thermodynamic from solid, in 95:5 (v/v) PEG-400:benzyl alcohol, cooled to room temperature, filtered
Method: The following HPLC method may be used to measure the modafinil compound content in the compositions. Filter a solution saturated with a modafinil compound through a 1.2 μm syringe filter. Dilute 10 μL of the clear solution to 1 mL with 990 μL of dimethylsulfoxide (Fischer Certified ACS grade). Take 10 μL of the diluted solution for the HPLC analysis, with the following representative column conditions: • Flow rate: 1.2 mL/min. • Column: ODS, 4.6×20 mm, Column Temp: 30° C. • Mobil phase: 80% (65% Acetonitrile/35% 1M phosphate buffer) • 20% water • Analysis time: 5 minutes • Wavelength: 222 nanometers
Concentration can be calculated by comparison to area from a modafinil compound standard used at 0.4 mg/mL with appropriate dilution.
A mixture of 95 mL of PEG-400 and 5 ml of benzyl alcohol was stirred at room temperature until homogeneous. To a separate container, 0.1 gram of modafinil was weighed and 1 mL of the mixed solvent was added with stirring and heating to 55-60° C. The solution was allowed to cool to room temperature and any undissolved solid was removed by filtering the solution. In the case of a viscous solution or a solution that solidifies at room temperature, warming until a freely flowing solution was obtained and then filtration gave a solution free of particulate matter.

mice = details: single administration; cited from earlier work
monkeys = details: single administration; cited from earlier work
[2] = Water and lipid solubility (observation)

NC(=O)C[S+]([O-])C(c1ccccc1)c1ccccc1 (centres unmarked) [modafinil, 2-(benzhydryl-sulfinyl)acetamide]
solubility [1]: 61 mg/mL (≈ 223 mM)
locomotor activity (mice): increased locomotor activity
nocturnal activity (monkeys): increased nocturnal activity
lipid solubility [2]: very poor
water solubility [2]: very poor
